Calls of active or inactive are those of the source.
Experiments:
[1] = test system: P388/ADR; test: cells; type: functional; conditions: Mus musculus
[2] = test system: SN12K1; test: cells; type: functional; conditions: Homo sapiens
[3] = test system: P388; test: cells; type: functional; conditions: Mus musculus
[4] = molecular target: T1, Zinc finger protein mex-5 (Caenorhabditis elegans, UniProt Q9XUB2); test: MEX-5/TCR-2 RNA interaction inhibitors, dose response, biochemical, C. elegans, fluorescence polarization (AID 1960)
T1 sequence (Q9XUB2 whole entry): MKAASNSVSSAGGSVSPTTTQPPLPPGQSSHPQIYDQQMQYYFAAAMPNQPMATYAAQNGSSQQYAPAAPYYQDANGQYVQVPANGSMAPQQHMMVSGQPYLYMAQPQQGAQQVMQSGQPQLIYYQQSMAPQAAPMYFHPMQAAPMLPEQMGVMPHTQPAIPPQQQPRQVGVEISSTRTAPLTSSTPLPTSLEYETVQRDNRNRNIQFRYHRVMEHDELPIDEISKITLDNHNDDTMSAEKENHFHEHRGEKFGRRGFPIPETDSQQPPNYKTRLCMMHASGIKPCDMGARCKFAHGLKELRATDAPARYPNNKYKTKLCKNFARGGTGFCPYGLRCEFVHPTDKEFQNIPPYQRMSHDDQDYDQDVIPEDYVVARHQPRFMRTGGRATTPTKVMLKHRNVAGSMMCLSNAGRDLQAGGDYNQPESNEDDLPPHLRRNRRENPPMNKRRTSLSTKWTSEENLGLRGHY

[5] = molecular target: T2, RNA-binding protein pos-1 (Caenorhabditis elegans, UniProt G5EF15); test: inhibitors of POS-1/mex-3 RNA binding, dose response, biochemical, fluorescence polarization (AID 1964);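 note: purified POS-1 fused to maltose binding protein made in E. coli; potency of compounds blocking POS-1 binding to fluorescent RNA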
T2 sequence (G5EF15 whole entry): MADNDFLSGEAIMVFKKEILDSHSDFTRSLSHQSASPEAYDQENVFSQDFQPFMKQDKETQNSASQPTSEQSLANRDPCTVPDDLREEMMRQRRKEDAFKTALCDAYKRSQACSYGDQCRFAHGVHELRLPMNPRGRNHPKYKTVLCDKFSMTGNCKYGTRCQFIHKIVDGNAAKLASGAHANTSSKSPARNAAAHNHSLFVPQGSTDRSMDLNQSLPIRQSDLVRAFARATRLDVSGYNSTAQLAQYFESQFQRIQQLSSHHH

[6] = THP-1 cell cytotoxicity, dose response, cytotoxicity control for non-replicating M. tuberculosis project (AID 489025); type: functional
[7] = microbe, parasite or virus in culture; type: functional; conditions: Mycobacterium tuberculosis
[8] = C. albicans growth with fluconazole, confirmation, fluorescence, retest (AID 2467); type: functional, cell-based
[9] = Vero E6 cell cytotoxicity, dose response, cytotoxicity control for non-replicating M. tuberculosis project, secondary assay (AID 492998); type: functional, VeroE6; conditions: Vero C1008
[10] = NIH-3T3 fibroblast cytotoxicity, dose response, cytotoxicity control, cell-based, fluorescence, Alamar Blue, secondary assay (AID 2327); type: functional;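 note: NIH-3T3 mouse fibroblasts cultured with fluconazole at 8 µg/mL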
[11] = cells; type: functional
[12] = cells; type: functional, cell-based
[13] = cells; type: functional, cell-based; remark: listed apart in the source
[14] = cytotoxicity in HEK-293T cells, dose response, cytotoxicity control for TCR NF-kB inhibitor project, luminescence, T-cell screen hits (AID 489026); type: functional, cell-based;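 note: cells exposed to compound about 14 hours before the viability readout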
[15] = molecular target: Glyceraldehyde-3-phosphate dehydrogenase (Homo sapiens, UniProt P04406)
[16] = molecular target: T3, High affinity choline transporter 1 (Homo sapiens, UniProt Q9GZV3); test: CHT inhibitors, dose response, cell-based, 5-point CRC, membrane potential dye (AID 504840); type: functional
T3 sequence (Q9GZV3 whole entry): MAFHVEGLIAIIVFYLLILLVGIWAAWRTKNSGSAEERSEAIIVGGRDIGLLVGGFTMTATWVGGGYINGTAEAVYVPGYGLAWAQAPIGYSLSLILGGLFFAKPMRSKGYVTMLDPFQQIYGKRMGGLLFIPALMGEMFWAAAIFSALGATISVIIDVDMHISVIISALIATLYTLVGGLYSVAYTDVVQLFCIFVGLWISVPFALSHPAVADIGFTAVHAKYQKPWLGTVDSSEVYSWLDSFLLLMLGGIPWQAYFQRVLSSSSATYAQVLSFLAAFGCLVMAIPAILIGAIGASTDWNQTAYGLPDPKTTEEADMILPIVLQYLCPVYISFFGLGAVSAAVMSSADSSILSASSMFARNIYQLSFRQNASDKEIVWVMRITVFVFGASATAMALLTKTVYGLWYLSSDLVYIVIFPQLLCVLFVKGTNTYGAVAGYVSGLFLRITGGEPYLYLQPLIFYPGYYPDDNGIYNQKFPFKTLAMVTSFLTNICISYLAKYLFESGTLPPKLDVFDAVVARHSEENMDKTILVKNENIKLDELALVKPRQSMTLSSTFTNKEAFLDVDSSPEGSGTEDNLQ

[17] = HEp-2 cell cytotoxicity, dose response, cytotoxicity control for RSV inhibitor project, HTS (AID 2410); type: functional; conditions: human respiratory syncytial virus
[18] = molecular target: Large T antigen (Simian virus 40, UniProt P03070); type: functional, Betapolyomavirus macacae;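 note: Confirmatory-stage PubChem screen for compounds that inhibit SV40 T antigen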
[19] = LGR2 antagonists, dose response, cell-based, HEK293, CRE-luciferase reporter, cherry pick, set 2 (AID 743343); type: functional;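 note: transfected cells were stimulated with diluted bursicon conditioned medium after compound addition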
[20] = MC4R antagonists, dose response, counter-screen for LGR2 antagonist project, cell-based, plate reader, cherry pick (AID 743444); type: functional;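 note: transfected HEK 293 cells stimulated with alpha-MSH peptide; potency of inhibitors of the alpha-MSH evoked signal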

Chain of Glyceraldehyde-3-phosphate dehydrogenase (P04406 whole entry): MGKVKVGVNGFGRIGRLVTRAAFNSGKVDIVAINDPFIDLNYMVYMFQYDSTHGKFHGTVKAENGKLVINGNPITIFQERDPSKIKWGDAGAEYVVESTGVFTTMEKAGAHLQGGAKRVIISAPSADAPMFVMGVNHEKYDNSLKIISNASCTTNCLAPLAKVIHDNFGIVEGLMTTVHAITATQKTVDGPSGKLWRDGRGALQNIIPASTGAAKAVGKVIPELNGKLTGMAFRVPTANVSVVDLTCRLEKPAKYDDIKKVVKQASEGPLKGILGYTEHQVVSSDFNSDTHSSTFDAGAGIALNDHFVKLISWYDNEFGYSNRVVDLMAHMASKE
Chain of Large T antigen (P03070 whole entry): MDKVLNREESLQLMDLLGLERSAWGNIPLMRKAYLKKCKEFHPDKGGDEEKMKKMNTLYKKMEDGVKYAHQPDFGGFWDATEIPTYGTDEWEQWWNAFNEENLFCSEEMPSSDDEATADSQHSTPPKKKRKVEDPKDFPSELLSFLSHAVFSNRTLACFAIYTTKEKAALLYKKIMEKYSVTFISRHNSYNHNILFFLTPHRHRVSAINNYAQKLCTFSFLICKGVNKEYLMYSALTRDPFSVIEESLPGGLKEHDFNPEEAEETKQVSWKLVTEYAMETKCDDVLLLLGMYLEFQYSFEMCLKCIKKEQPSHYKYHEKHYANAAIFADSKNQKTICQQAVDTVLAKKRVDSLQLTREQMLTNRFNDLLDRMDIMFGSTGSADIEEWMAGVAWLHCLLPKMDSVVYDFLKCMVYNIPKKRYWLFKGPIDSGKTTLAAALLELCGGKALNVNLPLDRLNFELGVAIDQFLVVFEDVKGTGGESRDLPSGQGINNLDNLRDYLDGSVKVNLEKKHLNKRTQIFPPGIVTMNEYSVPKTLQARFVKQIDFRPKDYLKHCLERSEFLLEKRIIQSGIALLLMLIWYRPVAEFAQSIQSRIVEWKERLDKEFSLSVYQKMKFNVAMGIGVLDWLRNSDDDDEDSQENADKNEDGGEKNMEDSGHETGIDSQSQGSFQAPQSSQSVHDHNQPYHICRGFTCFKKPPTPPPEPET

SMILES: COc1ccc(CC(N)=O)cc1OC
- GI50 [1]: > 1250 µM (inactive)
- GI50 [2]: > 1250 µM (inactive)
- GI50 [3]: > 1250 µM (inactive)

SMILES: CCOc1cc(C2C(C#N)=C(N)OC3=C2C(=O)CC(C)(C)C3)cc([N+](=O)[O-])c1O (centres undefined)
- EC50 [4]: > 300 µM (not active)
- EC50 [5]: > 300 µM (not active)

SMILES: Cc1noc2ncnc(Sc3ccc(Cl)cc3)c12
- CC50 [6]: 21.3 µM (active)
- CC50 [7]: 27.1 µM (active)
- EC50 [8]: > 38 µM (not active)
- CC50 [9]: > 20 µM (active)
- EC50 [10]: > 160 µM (inconclusive)
- IC50 [11]: 8.82 µM (active)

SMILES: Cn1cc(CN2CCC(C(=O)Nc3cccc(-c4cscn4)c3)CC2)cn1
- EC50 [12]: > 350 µM (not active)
- EC50 [13]: > 350 µM (not active)

SMILES: Cc1cccc(NC(=O)COc2cccc3c2CCN(C)C3=O)c1C
- EC50 [12]: > 350 µM (not active)
- EC50 [13]: > 350 µM (not active)

SMILES: COC(=O)N/N=C/c1ccc([N+](=O)[O-])s1
- CC50 [9]: > 20 µM (active)
- IC50 [11]: 30.5 µM (active)

SMILES: CCCCCN1C=CC(=C2C(=O)c3ccccc3C2=O)C=C1
- IC50 [14]: > 80 µM (inactive)

SMILES: NC(=O)CSc1nnc2ccc(-c3ccc(Cl)cc3)nn12
- EC50 [12]: > 350 µM (not active)
- EC50 [13]: > 350 µM (not active)

SMILES: C[C@H]1CN(C2=C(Cl)C(=O)N(c3ccc(Cl)nc3)C2=O)CCN1
- IC50 [15]: > 50 µM (inconclusive)

SMILES: COc1ccc(OC)c(/C=C2\SC(=S)N(NS(=O)(=O)c3ccccc3)C2=O)c1
- IC50 [16]: 8.71 µM (active)

SMILES: CCOc1ccccc1CN1CCN(S(C)(=O)=O)CC1
- EC50 [12]: > 350 µM (not active)
- EC50 [13]: > 350 µM (not active)

SMILES: O=C(Nc1ccccc1Br)C1CCCN1S(=O)(=O)c1cccc2nsnc12 (centres undefined)
- IC50 [16]: 13.8 µM (active)
- CC50 [17]: 33.1 µM (active)

SMILES: COc1cc(/C=N/NC(=O)CCn2nc(C)cc2C)ccc1O
- IC50 [18]: 15.6 µM (active)

SMILES: O=C(NC1CCCCC1)C(c1ccc2ncccc2c1)N(Cc1ccc2c(c1)OCO2)C(=O)c1ccc2c(c1)OCCO2 (centres undefined)
- IC50 [16]: 15.1 µM (active)

SMILES: Cc1csc(NC(=O)c2ccc(OCC3CCCO3)cc2)n1 (centres undefined)
- AC50 [19]: 2.55 µM (active)
- AC50 [20]: 1.96 µM (active)

SMILES: CCC(C)C1NC(=O)CNC(=O)C2Cc3c([nH]c4cc(O)ccc34)[S+]([O-])CC(NC(=O)CNC1=O)C(=O)NC(CC(=O)O)C(=O)N1CC(O)CC1C(=O)NC(C(C)C(O)CO)C(=O)N2 (centres undefined)
- GI50 [1]: 2.77 µM (inactive)
- GI50 [2]: 2.32 µM (inactive)
- GI50 [3]: 2.47 µM (inactive)

SMILES: COc1ccc(OC)c(C2CC(=O)c3c([nH]c(C(=O)OC(C)C)c3C)C2)c1 (centres undefined)
- IC50 [14]: > 80 µM (inactive)

— ChEMBL document CHEMBL1201862, “PubChem BioAssay data set” (2004)
